# Measured values: paper PMC3690672 (European journal of nuclear medicine and molecular imaging, 2009)
# Where “and” joins values, the source holds several entries; their conditions need not be identical. Equal values may be shown once. Read-outs that look alike come from different tables or passages of the source.
# Legend:
# [1] = tested on: P-glycoprotein (P-gp) at the blood-brain barrier; type: in vivo, rat
# [2] = Tariquidar or elacridar concentrations in plasma and brain by LC/MS; type: in vivo; conditions: rat; for concentration at 210 min / concentration at 180 min: intravenous
# [3] = humans, 2 mg/kg; cited from earlier work
# [4] = target: T1, P-glycoprotein (P-gp) at the blood-brain barrier (Rattus norvegicus, UniProt Q6PSM0); conditions: for Mean DV increase (of baseline DV): 3 mg/kg tariquidar; for DV (Logan) of VPM / DV of VPM (2T4K model) / K1 of VPM (2T4K model) / k2 of VPM (2T4K model) / k3 of VPM (2T4K model) / k4 of VPM (2T4K model): after 3 mg/kg tariquidar (scan 2, 120 min after), mean±SD, n=6
# [5] = target: T1, P-glycoprotein (P-gp) at the blood-brain barrier; test: in vivo
# [6] = target: T1, P-glycoprotein (P-gp) at the blood-brain barrier; conditions: for DV (Logan) of VPM / DV of VPM (2T4K model) / K1 of VPM (2T4K model) / k2 of VPM (2T4K model) / k3 of VPM (2T4K model) / k4 of VPM (2T4K model): whole brain, PET 120 min after, mean±SD
# [7] = tested on: P-gp at the blood-brain barrier; conditions: 15 mg/kg, rats; cited from earlier work
# [8] = tested on: P-gp at the blood-brain barrier; conditions: humans, 2 mg/kg, plasma 490±203 ng/ml; cited from earlier work
# [9] = tested on: multidrug resistance-associated proteins (MRPs), such as MRP1; conditions: cited from earlier work
# [10] = Hill fit of whole-brain DV vs inhibitor dose
# T1 sequence (Q6PSM0 1-1272): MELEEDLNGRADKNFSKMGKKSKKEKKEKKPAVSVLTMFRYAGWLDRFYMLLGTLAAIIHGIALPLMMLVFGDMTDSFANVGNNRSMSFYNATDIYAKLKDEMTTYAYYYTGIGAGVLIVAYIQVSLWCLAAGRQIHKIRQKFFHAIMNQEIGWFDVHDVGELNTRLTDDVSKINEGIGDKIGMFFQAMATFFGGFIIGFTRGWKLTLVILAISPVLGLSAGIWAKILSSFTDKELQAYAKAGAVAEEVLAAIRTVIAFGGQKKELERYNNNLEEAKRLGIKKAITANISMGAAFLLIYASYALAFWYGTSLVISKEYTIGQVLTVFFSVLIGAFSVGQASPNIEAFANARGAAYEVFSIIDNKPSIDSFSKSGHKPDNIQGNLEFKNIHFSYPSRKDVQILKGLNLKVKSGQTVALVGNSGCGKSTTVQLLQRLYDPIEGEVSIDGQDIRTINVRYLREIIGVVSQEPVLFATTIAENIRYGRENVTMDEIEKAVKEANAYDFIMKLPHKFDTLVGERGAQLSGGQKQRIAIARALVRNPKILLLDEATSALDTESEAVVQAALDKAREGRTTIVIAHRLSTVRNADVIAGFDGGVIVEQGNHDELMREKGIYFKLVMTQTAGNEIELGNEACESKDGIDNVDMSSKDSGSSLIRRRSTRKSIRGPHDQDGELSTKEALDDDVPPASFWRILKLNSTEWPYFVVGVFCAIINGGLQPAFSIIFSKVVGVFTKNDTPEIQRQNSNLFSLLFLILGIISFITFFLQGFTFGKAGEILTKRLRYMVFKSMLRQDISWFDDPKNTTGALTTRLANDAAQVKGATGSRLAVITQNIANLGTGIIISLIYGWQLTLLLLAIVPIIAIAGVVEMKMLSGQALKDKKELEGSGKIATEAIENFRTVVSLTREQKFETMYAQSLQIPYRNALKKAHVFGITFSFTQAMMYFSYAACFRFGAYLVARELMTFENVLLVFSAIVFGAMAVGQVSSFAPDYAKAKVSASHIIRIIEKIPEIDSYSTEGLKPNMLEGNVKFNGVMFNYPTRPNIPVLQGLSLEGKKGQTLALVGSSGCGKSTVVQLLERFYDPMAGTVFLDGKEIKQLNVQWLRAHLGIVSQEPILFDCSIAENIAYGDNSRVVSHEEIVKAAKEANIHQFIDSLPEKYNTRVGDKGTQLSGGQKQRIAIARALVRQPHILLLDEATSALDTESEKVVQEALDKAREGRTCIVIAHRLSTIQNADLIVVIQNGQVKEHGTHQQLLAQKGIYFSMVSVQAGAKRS
structure (smiles),measurement,setting,value
"COc1cc2c(cc1OC)CN(CCc1ccc(NC(=O)c3cc(OC)c(OC)cc3NC(=O)c3cnc4ccccc4c3)cc1)CC2 [tariquidar, Tariquidar dimesylate]",Reversibility of the effect on brain TACs,"[1]; 15 mg/kg, decline of TACs after peak uptake",at least partially reversible
same,Time of peak VPM brain uptake (maximum effect) after inhibitor injection,[1]; tariquidar 15 mg/kg or elacridar 5 mg/kg at 60 min after radiotracer injection,30 ± 5 min and 30 min
same,concentration at 210 min,"[2]; brain, 3 mg/kg",457 ± 37 ng/mL
same,concentration at 180 min,"[2]; brain, 15 mg/kg",6450 ± 3600 ng/mL
same,Kp at […],"[2]; brain, iv, 3 mg/kg",1 ± 0.3
same,Kp at 3 h,"[2]; brain, iv, 15 mg/kg",1.7 ± 0.9
same,concentration at 210 min,"[2]; plasma, 3 mg/kg",503 ± 139 ng/mL
same,concentration at 180 min,"[2]; plasma, 15 mg/kg",4000 ± 390 ng/mL
same,Plasma concentration at the time of the PET scan,[3],490 ± 203 ng/mL
same,Mean DV increase (of baseline DV),[4]; cerebellum,2.8±0.7
same,DV (Logan) of VPM,[4]; cerebellum,6.07±0.52 (0.9) ml·ml^−1
same,DV of VPM (2T4K model),[4]; cerebellum,6.14 ml·ml^−1 and 6.14±0.54 (2.9) ml·ml^−1
same,K1 of VPM (2T4K model),[4]; cerebellum,0.73±0.14 (11.7) ml·ml^−1·min^−1
same,k2 of VPM (2T4K model),[4]; cerebellum,0.32±0.13 (46.6) min^−1
same,k3 of VPM (2T4K model),[4]; cerebellum,0.30±0.08 (75.2) min^−1
same,k4 of VPM (2T4K model),[4]; cerebellum,0.20±0.05 (26.4) min^−1
same,Mean DV increase (of baseline DV),[4]; corpus striatum,5.9±1.1
same,DV (Logan) of VPM,[4]; corpus striatum,8.70±1.05 (0.6) ml·ml^−1
same,DV of VPM (2T4K model),[4]; corpus striatum,8.89±1.08 (2.7) ml·ml^−1
same,K1 of VPM (2T4K model),[4]; corpus striatum,0.79±0.13 (10.5) ml·ml^−1·min^−1
same,k2 of VPM (2T4K model),[4]; corpus striatum,0.28±0.08 (46.6) min^−1
same,k3 of VPM (2T4K model),[4]; corpus striatum,0.47±0.22 (53.4) min^−1
same,k4 of VPM (2T4K model),[4]; corpus striatum,0.22±0.06 (23.1) min^−1
same,Mean DV increase (of baseline DV),[4]; entorhinal cortex,3.0±1.4
same,DV (Logan) of VPM,[4]; entorhinal cortex,6.09±1.37 (1.1) ml·ml^−1
same,DV of VPM (2T4K model),[4]; entorhinal cortex,6.20±1.40 (3.4) ml·ml^−1
same,K1 of VPM (2T4K model),[4]; entorhinal cortex,0.64±0.17 (12.9) ml·ml^−1·min^−1
same,k2 of VPM (2T4K model),[4]; entorhinal cortex,0.37±0.14 (57.5) min^−1
same,k3 of VPM (2T4K model),[4]; entorhinal cortex,0.34±0.10 (68.9) min^−1
same,k4 of VPM (2T4K model),[4]; entorhinal cortex,0.15±0.05 (22.5) min^−1
same,Mean DV increase (of baseline DV),[4]; frontal motor cortex,3.1±1.1
same,DV (Logan) of VPM,[4]; frontal motor cortex,7.14±0.80 (0.9) ml·ml^−1
same,DV of VPM (2T4K model),[4]; frontal motor cortex,7.33±0.82 (1.7) ml·ml^−1
same,K1 of VPM (2T4K model),[4]; frontal motor cortex,0.63±0.08 (9.5) ml·ml^−1·min^−1
same,k2 of VPM (2T4K model),[4]; frontal motor cortex,0.24±0.05 (49.6) min^−1
same,k3 of VPM (2T4K model),[4]; frontal motor cortex,0.32±0.09 (68.7) min^−1
same,k4 of VPM (2T4K model),[4]; frontal motor cortex,0.19±0.06 (23.8) min^−1
same,Mean DV increase (of baseline DV),[4]; hippocampus,6.4±0.9
same,DV (Logan) of VPM,[4]; hippocampus,8.01±0.88 (0.9) ml·ml^−1
same,DV of VPM (2T4K model),[4]; hippocampus,8.17±0.91 (2.2) ml·ml^−1
same,K1 of VPM (2T4K model),[4]; hippocampus,0.75±0.11 (11.1) ml·ml^−1·min^−1
same,k2 of VPM (2T4K model),[4]; hippocampus,0.32±0.08 (57.9) min^−1
same,k3 of VPM (2T4K model),[4]; hippocampus,0.43±0.09 (69.4) min^−1
same,k4 of VPM (2T4K model),[4]; hippocampus,0.18±0.05 (23.8) min^−1
same,Mean DV increase (of baseline DV),[4]; thalamus,7.1±1.1
same,DV (Logan) of VPM,[4]; thalamus,9.45±1.03 (0.6) ml·ml^−1
same,DV of VPM (2T4K model),[4]; thalamus,9.64 ml·ml^−1 and 9.64±1.06 (2.0) ml·ml^−1
same,K1 of VPM (2T4K model),[4]; thalamus,0.93±0.12 (9.0) ml·ml^−1·min^−1
same,k2 of VPM (2T4K model),[4]; thalamus,0.33±0.18 (48.8) min^−1
same,k3 of VPM (2T4K model),[4]; thalamus,0.47±0.11 (64.4) min^−1
same,k4 of VPM (2T4K model),[4]; thalamus,0.23±0.06 (23.6) min^−1
same,EC50 at 180 min,[5],0.545 ± 0.0299 µg/mL
same,ED50 at 120 min,"[5]; Sprague-Dawley, iv",3 ± 0.2 mg/kg
same,DVmax (maximum effect),[6]; [10],11.9±0.5 ml·ml^−1
same,Hill factor n,[6]; [10],3.0±0.6
same,Dose leading to complete inhibition of P-gp,[6]; according to dose-response assessment (Fig. 2),above 6 mg/kg
same,Maximum increase in VPM brain distribution (DV) over baseline,"[6]; at maximum effective doses, rat brain",up to 11 fold
same,Whole-brain DV increase (factor) as compared to baseline scans,[6]; inhibitor 3.75 mg/kg,7.0±1.1
same,Whole-brain DV increase (factor) as compared to baseline scans,[6]; inhibitor 7.5 mg/kg,10.1±0.8
same,Whole-brain DV increase (factor) as compared to baseline scans,[6]; inhibitor 15 mg/kg,9.9±1.8
same,Whole-brain DV increase (factor) as compared to baseline scans,[6]; inhibitor 30 mg/kg,10.2±0.3
same,Increase of brain DVs at the half-maximum effect plasma concentration,"[6]; rat, in vivo",approximately 4 fold
same,DV (Logan) of VPM,[6]; inhibitor 3.75 mg/kg i.v.,8.80±1.06 (0.9) ml·ml^−1
same,DV of VPM (2T4K model),[6]; inhibitor 3.75 mg/kg i.v.,8.92±1.11 (2.3) ml·ml^−1
same,K1 of VPM (2T4K model),[6]; inhibitor 3.75 mg/kg i.v.,0.81±0.16 (13.9) ml·ml^−1·min^−1
same,k2 of VPM (2T4K model),[6]; inhibitor 3.75 mg/kg i.v.,0.18±0.05 (50.3) min^−1
same,k3 of VPM (2T4K model),[6]; inhibitor 3.75 mg/kg i.v.,0.20±0.02 (101.3) min^−1
same,k4 of VPM (2T4K model),[6]; inhibitor 3.75 mg/kg i.v.,0.22±0.07 (51.4) min^−1
same,DV (Logan) of VPM,[6]; inhibitor 7.5 mg/kg i.v.,12.66±0.77 (0.9) ml·ml^−1
same,DV of VPM (2T4K model),[6]; inhibitor 7.5 mg/kg i.v.,12.93±0.79 (1.7) ml·ml^−1
same,K1 of VPM (2T4K model),[6]; inhibitor 7.5 mg/kg i.v.,1.27±0.24 (17.4) ml·ml^−1·min^−1
same,k2 of VPM (2T4K model),[6]; inhibitor 7.5 mg/kg i.v.,0.31±0.12 (82.5) min^−1
same,k3 of VPM (2T4K model),[6]; inhibitor 7.5 mg/kg i.v.,0.37±0.10 (97.3) min^−1
same,k4 of VPM (2T4K model),[6]; inhibitor 7.5 mg/kg i.v.,0.18±0.01 (23.9) min^−1
same,DV (Logan) of VPM,[6]; inhibitor 15 mg/kg i.v.,12.35±1.79 (1.4) ml·ml^−1
same,DV of VPM (2T4K model),[6]; inhibitor 15 mg/kg i.v.,12.72±1.83 (1.8) ml·ml^−1
same,K1 of VPM (2T4K model),[6]; inhibitor 15 mg/kg i.v.,1.02±0.02 (15.0) ml·ml^−1·min^−1
same,k2 of VPM (2T4K model),[6]; inhibitor 15 mg/kg i.v.,0.43±0.16 (50.3) min^−1
same,k3 of VPM (2T4K model),[6]; inhibitor 15 mg/kg i.v.,0.48±0.04 (39.2) min^−1
same,k4 of VPM (2T4K model),[6]; inhibitor 15 mg/kg i.v.,0.12±0.02 (20.4) min^−1
same,DV (Logan) of VPM,[6]; inhibitor 30 mg/kg i.v.,12.76±0.04 (0.7) ml·ml^−1
same,DV of VPM (2T4K model),[6]; inhibitor 30 mg/kg i.v.,13.11±0.22 (2.1) ml·ml^−1
same,K1 of VPM (2T4K model),[6]; inhibitor 30 mg/kg i.v.,1.22±0.23 (11.2) ml·ml^−1·min^−1
same,k2 of VPM (2T4K model),[6]; inhibitor 30 mg/kg i.v.,0.30±0.04 (54.6) min^−1
same,k3 of VPM (2T4K model),[6]; inhibitor 30 mg/kg i.v.,0.38±0.18 (59.4) min^−1
same,k4 of VPM (2T4K model),[6]; inhibitor 30 mg/kg i.v.,0.17±0.09 (19.8) min^−1
same,DV increase of VPM following tariquidar,[7],approximately 12 fold
same,Increase of brain DVs of VPM,[8],1.24 fold
same,"Inhibition of MRPs, such as MRP1",[9],do not inhibit
